Where a name gives a salt, the structure may show the parent alone.
Experiment: Bloodwork: complete blood count, electrolytes, extended blood chemistry
Assay type: in vivo, sheep
Details: for Total Bili: ref 0.14-0.32; for K+: ref 3.9-5.4; for Phos: ref 5-7.3; for Total Prot: ref 6-7.9
Procedure: Indirect blood pressure, pulse recording, pain testing (mechanical stimulus device, cold and warm water baths see description in procedure) and weight were taken on days 1, 3, 7, 15, 22, 29, 36, and 43. Venous blood samples (15 ml drawn from the jugular vein with Vacutainer brand blood collection tubes) for complete blood count, electrolytes, and extended blood chemistry were drawn on days 1, 15, and 43 (mild procedure only light hand restraint necessary).

[1] = sheep Chicken Hawk #87, 5 mg/day, Baseline
[2] = sheep Chicken Hawk #87, 5 mg/day, Day 1

Compound Cc1ncc2n1-c1ccc(Cl)cc1C(c1ccccc1F)=NC2 [Midazolam, midazolam hydrochloride] has an MCH (sheep #498, 10 mg/day, Day 43) of 9.3 pg, an MCHC (sheep #498, 10 mg/day, Day 43) of 30.3 g/dL and an MCV (sheep #498, 10 mg/day, Day 43) of 30.9 fL. The “Na+” value (sheep #498, 10 mg/day, Day 43) was 148 mEq/l, the RBC (sheep #498, 10 mg/day, Day 43) was 1.003e+07 µL⁻¹ and the WBC (sheep #498, 10 mg/day, Day 43) was 9700 µL⁻¹. For the same compound, the “Total Bili” value (sheep #498, 10 mg/day, Day 43) was 0.1 mg/dL, the Creatinine (sheep #498, 10 mg/day, Day 43, ref 1-2.7) was 1.5 mg/dL and the Albumin (sheep #498, 10 mg/day, Day 43, ref 2.4-3) was 3.6 g/dL. For the same compound, the “K+” value (sheep #498, 10 mg/day, Day 43) was 4.0 mEq/l, the Phos (sheep #498, 10 mg/day, Day 43) was 5.8 Mg/dl and the “Total Prot” value (sheep #498, 10 mg/day, Day 43) was 6.1 g/dL. The “Platlet Count” value (sheep #498, 10 mg/day, Day 43, result in words) was “Ade-”, the ALT (sheep #518, 5 mg/day, Day 1) was 12.0 U/L and the AST (sheep #518, 5 mg/day, Day 1) was 112 U/L. The “Alk Phos” value (sheep #518, 5 mg/day, Day 1) was 157 U/L, the BUN (sheep #518, 5 mg/day, Day 1) was 15 mg/dL and the CPK (sheep #518, 5 mg/day, Day 1) was 148 U/L. For the same compound, the Cholesterol (sheep #518, 5 mg/day, Day 1) was 96 mg/dL, the “Differential Count: Eosin” value (sheep #518, 5 mg/day, Day 1) was 1% and the “Differential Count: Lymph” value (sheep #518, 5 mg/day, Day 1) was 29%. The “Differential Count: Seg” value (sheep #518, 5 mg/day, Day 1) was 70%, the “Gamma GT” value (sheep #518, 5 mg/day, Day 1) was 79 U/L and the Glucose (sheep #518, 5 mg/day, Day 1) was 8.8 mg/dL. It also gave a Hct (sheep #518, 5 mg/day, Day 1) of 35.0%, a Hgb (sheep #518, 5 mg/day, Day 1) of 12.2 g/dL and an MCH (sheep #518, 5 mg/day, Day 1) of 9.6 pg. For the same compound, the MCHC (sheep #518, 5 mg/day, Day 1) was 31.4 G/dl, the MCV (sheep #518, 5 mg/day, Day 1) was 30.6 fL and the “Na+” value (sheep #518, 5 mg/day, Day 1) was 154 mEq/l. The “Platlet Count” value (sheep #518, 5 mg/day, Day 1) was 642000 µL⁻¹, the RBC (sheep #518, 5 mg/day, Day 1) was 1.144e+07 µL⁻¹ and the WBC (sheep #518, 5 mg/day, Day 1) was 8400 µL⁻¹. The “Total Bili” value (sheep #518, 5 mg/day, Day 1) was 0.2 mg/dL, the Creatinine (sheep #518, 5 mg/day, Day 1, ref 1-2.7) was 1.1 mg/dL and the Albumin (sheep #518, 5 mg/day, Day 1, ref 2.4-3) was 3.6 G/dl. The “K+” value (sheep #518, 5 mg/day, Day 1) was 4.9 mEq/l, the Phos (sheep #518, 5 mg/day, Day 1) was 7.2 mg/dL and the “Total Prot” value (sheep #518, 5 mg/day, Day 1) was 7.0 G/dl. The ALT (sheep #518, 5 mg/day, Day 3) was 10.0 U/L, the AST (sheep #518, 5 mg/day, Day 3) was 99 U/L and the “Alk Phos” value (sheep #518, 5 mg/day, Day 3) was 99 U/L. For the same compound, the BUN (sheep #518, 5 mg/day, Day 3) was 5 mg/dL, the CPK (sheep #518, 5 mg/day, Day 3) was 834 U/L and the Cholesterol (sheep #518, 5 mg/day, Day 3) was 87 mg/dL. The “Differential Count: Atyp lym” value (sheep #518, 5 mg/day, Day 3) was 1%, the “Differential Count: Eosin” value (sheep #518, 5 mg/day, Day 3) was 1% and the “Differential Count: Lymph” value (sheep #518, 5 mg/day, Day 3) was 47%. For the same compound, the “Differential Count: Seg” value (sheep #518, 5 mg/day, Day 3) was 51%, the “Gamma GT” value (sheep #518, 5 mg/day, Day 3) was 79 U/L and the Glucose (sheep #518, 5 mg/day, Day 3) was 122 mg/dL. It also gave a Hct (sheep #518, 5 mg/day, Day 3) of 33.0%, a Hgb (sheep #518, 5 mg/day, Day 3) of 11.3 g/dL and an MCH (sheep #518, 5 mg/day, Day 3) of 9.3 pg. For the same compound, the MCHC (sheep #518, 5 mg/day, Day 3) was 30.1 G/dl, the MCV (sheep #518, 5 mg/day, Day 3) was 30.7 fL and the “Na+” value (sheep #518, 5 mg/day, Day 3) was 151 mEq/l. For the same compound, the “Platlet Count” value (sheep #518, 5 mg/day, Day 3) was 546000 µL⁻¹, the RBC (sheep #518, 5 mg/day, Day 3) was 1.075e+07 µL⁻¹ and the WBC (sheep #518, 5 mg/day, Day 3) was 6400 µL⁻¹. For the same compound, the “Total Bili” value (sheep #518, 5 mg/day, Day 3) was 0.1 mg/dL, the Creatinine (sheep #518, 5 mg/day, Day 3, ref 1-2.7) was 1.4 mg/dL and the Albumin (sheep #518, 5 mg/day, Day 3, ref 2.4-3) was 3.8 G/dl. The “K+” value (sheep #518, 5 mg/day, Day 3) was 4.4 mEq/l, the Phos (sheep #518, 5 mg/day, Day 3) was 5.7 mg/dL and the “Total Prot” value (sheep #518, 5 mg/day, Day 3) was 6.6 G/dl. The ALT (sheep #518, 5 mg/day, Day 15) was 13.0 U/L, the AST (sheep #518, 5 mg/day, Day 15) was 74 U/L and the “Alk Phos” value (sheep #518, 5 mg/day, Day 15) was 100 U/L. For the same compound, the BUN (sheep #518, 5 mg/day, Day 15) was 13 mg/dL, the CPK (sheep #518, 5 mg/day, Day 15) was 172 U/L and the Cholesterol (sheep #518, 5 mg/day, Day 15) was 83 mg/dL. The “Differential Count: Eosin” value (sheep #518, 5 mg/day, Day 15) was 5%, the “Differential Count: Lymph” value (sheep #518, 5 mg/day, Day 15) was 62% and the “Differential Count: Seg” value (sheep #518, 5 mg/day, Day 15) was 33%. For the same compound, the “Gamma GT” value (sheep #518, 5 mg/day, Day 15) was 90 U/L, the Glucose (sheep #518, 5 mg/day, Day 15) was 74 mg/dL and the Hct (sheep #518, 5 mg/day, Day 15) was 33.0%. For the same compound, the Hgb (sheep #518, 5 mg/day, Day 15) was 11.6 g/dL, the MCH (sheep #518, 5 mg/day, Day 15) was 9.6 pg and the MCHC (sheep #518, 5 mg/day, Day 15) was 31.3 G/dl. For the same compound, the MCV (sheep #518, 5 mg/day, Day 15) was 30.7 fL, the “Na+” value (sheep #518, 5 mg/day, Day 15) was 151 mEq/l and the “Platlet Count” value (sheep #518, 5 mg/day, Day 15) was 533000 µL⁻¹. The RBC (sheep #518, 5 mg/day, Day 15) was 1.208e+07 µL⁻¹, the WBC (sheep #518, 5 mg/day, Day 15) was 5300 µL⁻¹ and the “Total Bili” value (sheep #518, 5 mg/day, Day 15) was 0.1 mg/dL. For the same compound, the Creatinine (sheep #518, 5 mg/day, Day 15, ref 1-2.7) was 1.6 mg/dL, the Albumin (sheep #518, 5 mg/day, Day 15, ref 2.4-3) was 4.1 G/dl and the “K+” value (sheep #518, 5 mg/day, Day 15) was 4.6 mEq/l. For the same compound, the Phos (sheep #518, 5 mg/day, Day 15) was 5.1 mg/dL, the “Total Prot” value (sheep #518, 5 mg/day, Day 15) was 6.7 G/dl and the ALT (sheep #518, 5 mg/day, Day 43) was 12.0 U/L. The AST (sheep #518, 5 mg/day, Day 43) was 76 U/L, the “Alk Phos” value (sheep #518, 5 mg/day, Day 43) was 89 U/L and the BUN (sheep #518, 5 mg/day, Day 43) was 7 mg/dL. For the same compound, the CPK (sheep #518, 5 mg/day, Day 43) was 787 U/L, the Cholesterol (sheep #518, 5 mg/day, Day 43) was 69 mg/dL and the “Differential Count: Atyp lym” value (sheep #518, 5 mg/day, Day 43) was 1%. The “Differential Count: Eosin” value (sheep #518, 5 mg/day, Day 43) was 4%, the “Differential Count: Lymph” value (sheep #518, 5 mg/day, Day 43) was 48% and the “Differential Count: Seg” value (sheep #518, 5 mg/day, Day 43) was 47%. For the same compound, the “Gamma GT” value (sheep #518, 5 mg/day, Day 43) was 68 U/L, the Glucose (sheep #518, 5 mg/day, Day 43) was 89 mg/dL and the Hct (sheep #518, 5 mg/day, Day 43) was 44.6%. For the same compound, the Hgb (sheep #518, 5 mg/day, Day 43) was 13.7 g/dL, the MCH (sheep #518, 5 mg/day, Day 43) was 9.6 pg and the MCHC (sheep #518, 5 mg/day, Day 43) was 30.7 G/dl. The MCV (sheep #518, 5 mg/day, Day 43) was 31.1 fL, the “Na+” value (sheep #518, 5 mg/day, Day 43) was 152 mEq/l and the “Platlet Count” value (sheep #518, 5 mg/day, Day 43) was 448000 µL⁻¹. The RBC (sheep #518, 5 mg/day, Day 43) was 1.254e+07 µL⁻¹, the WBC (sheep #518, 5 mg/day, Day 43) was 4800 µL⁻¹ and the “Total Bili” value (sheep #518, 5 mg/day, Day 43) was 0.1 mg/dL. The Creatinine (sheep #518, 5 mg/day, Day 43, ref 1-2.7) was 1.7 mg/dL, the Albumin (sheep #518, 5 mg/day, Day 43, ref 2.4-3) was 3.5 G/dl and the “K+” value (sheep #518, 5 mg/day, Day 43) was 4.6 mEq/l. The Phos (sheep #518, 5 mg/day, Day 43) was 6.4 mg/dL, the “Total Prot” value (sheep #518, 5 mg/day, Day 43) was 6.2 G/dl and the “Differential Count: Atyp lym” value [1] was 0%. The “Differential Count: Baso” value [1] was 0%, the “Differential Count: Eosin” value [1] was 2% and the “Differential Count: Lymph” value [1] was 41%. The “Differential Count: Mono” value [1] was 4%, the “Differential Count: Seg” value [1] was 53% and the Hct [1] was 31.5%. It also gave a Hgb [1] of 10.8 g/dL, an MCH [1] of 11.0 pg and an MCHC [1] of 34.2 g/dL. The MCV [1] was 32.3 fL, the “Platlet Count” value [1] was 848000 µL⁻¹ and the RBC [1] was 9.77e+06 µL⁻¹. The WBC [1] was 6180 µL⁻¹, the ALT [2] was 4 U/L and the AST [2] was 63 U/L. The Albumin [2] was 3.2 g/dL, the “Alk Phos” value [2] was 54 U/L and the BUN [2] was 14 mg/dL. For the same compound, the CPK [2] was 163 U/L, the Cholesterol [2] was 71 mg/dL and the Creatinine [2] was 1.3 mg/dL. For the same compound, the “Differential Count: Atyp lym” value [2] was 0%, the “Differential Count: Baso” value [2] was 0% and the “Differential Count: Eosin” value [2] was 2%. For the same compound, the “Differential Count: Lymph” value [2] was 55%, the “Differential Count: Mono” value [2] was 7% and the “Differential Count: Seg” value [2] was 36%. For the same compound, the “Gamma GT” value [2] was 55 U/L.

Source: patent publication US20040006070A1, “Intraspinal continuous infusion of midazolam hydrochloride for the treatment of pain” (priority 2002, published 2004)
